In PMC12589998, “Development and validation of a UHPLC-QqQ-MS/MS method for simultaneous determination of fifteen major components from Oroxyli seed extract in rat plasma and its application in the pharmacokinetic study” (Frontiers in Pharmacology, 2025):
“Also recorded” adds a separate entry of the source. Like-named read-outs stand apart in the source and are kept apart here.

Key:
[1] = Pharmacokinetic study in rats after oral administration of OS extract (UHPLC-QqQ-MS/MS of plasma); type: in vivo, rat; conditions: for concentration at 0.5 h: SD, 3 g/kg, rat plasma collected 0.5 h after oral administration of the OS extract, read-out: Concentration printed in MRM chromatogram of plasma sample (Figure 2C); for AUC(0-t) / AUC(0-inf) / Cmax / half-life / Tmax: rat plasma, oral 3 g/kg OS extract, n = 6, mean ± SD; for AUC(0-inf): read-out: AUC(0-∞); for Cmax: read-out: Cmax; for half-life: read-out: T1/2 (converted); for Tmax: read-out: Tmax
Method: The UHPLC-QqQ-MS/MS system consisted of a 1290 UHPLC and a 6470 mass spectrometer (Agilent Technologies). Chromatographic separation was realized on utilizing an ACQUITY UPLC BEH C18 column (2.1 × 100 mm, 1.7 μm) maintained at 35 °C. The mobile phase consisting of 0.1% formic acid in water (A) and acetonitrile (B) was utilized with the elution program set at 0 min–1 min, 5% B–30% B; 1 min–4 min, 30% B– 50% B; 4 min–8 min, and 50% B–90% B. The injection volume was 5 μL, and the flow rate was 0.3 mL/min. The mass spectrometry parameters in the negative ion mode, gas temperature, flow rate, and nebulizer pressure were 300 °C, 7 L/min, and 35 psi, respectively. The mass spectra properties of the 15 analytes and the IS are illustrated in Table 1.
To 100 μL of the plasma sample, 20 μL of methanol, 20 μL of IS solution (methylparaben, 1 μg/mL), and 5 μL of formic acid were added and vortexed for a duration of 2 min. Subsequently, the mixture underwent extraction with 800 μL of acetonitrile for 3 min. Following 10 min of centrifugation at 12,000 g, the supernatant was collected and evaporated to dryness under N2 to obtain the residue. Finally, the residue was reconstituted in 50% methanol (100 μL) and utilized for analysis.
Before initiating the study, six male SD rats underwent a 12-h fasting period, during which they were granted unrestricted access to water. Then, the rats were administered an oral dose of 3 g/kg of the OS extract, which had been dissolved in 0.5% CMC-Na aqueous solution. Blood samples, approximately 200 μL each, were collected at various time points: before administration and at 0.03, 0.08, 0.17, 0.25, 0.5, 0.75, 1, 2, 4, 6, 8, 10, 12, 24, 36, and 48 h post-administration. Following 10 min of centrifugation at 6,000 g, the resultant samples were stored at −80 °C.
The developed method was effectively applied to study the pharmacokinetics in rats following oral administration of the OS extract. […] This was likely due to their low concentrations in the OS extract. Ultimately, nine components (chrysin, chrysin-7-O-β-D-glucuronide, baicalin, baicalein, oroxin A, oroxin B, oroxylin A, oroxylin A-7-O-β-D-glucuronide, and scutellarein) were successfully fitted with pharmacokinetic parameters. The average plasma concentration–time profiles of these substances are depicted in Figure 3. […] All data were presented as the mean ± standard deviation (Mean ± SD).

[2] = Stability of the analytes in rat plasma samples under storage conditions; type: physicochemical; conditions: n = 6
Method: The bioanalytical method validation was evaluated for specificity, linearity, sensitivity, precision and accuracy, recovery, matrix effect, and stability to ensure compliance with the U.S. Food and Drug Administration (FDA) guidance on precise quantitative analysis ([Center for Drug Evaluation and Research of the U.S., 2018]). The assessment of specificity was conducted by comparing the chromatograms obtained from blank plasma, blank plasma spiked with the target components, and samples gathered following the oral administration of OS extract. Calibration curves were constructed by plotting the ratio for the peak area of the analyte to IS versus the concentration, with 1/x^2 serving as the weighting factor. The lower limit of quantification (LLOQ) was defined as the concentration at which a signal to noise ratio of […] 10 was achievable. The evaluation of precision and accuracy involved the analysis of six QC samples, both within a single day and over 3 consecutive days. Accuracy was expressed as the relative error (RE), whereas precision was gauged via relative standard deviation (RSD). Extraction recovery was ascertained by juxtaposing the responses of analytes in extracted samples against those in samples that were spiked post-extraction. The matrix effect was scrutinized by determining the ratio of the responses of the analytes in post-extraction spiked samples to those in the mixed standard solution. The stability of the analytes in plasma samples was explored under diverse conditions: encompassing a 12-h period in an autosampler, a 4-h interval at room temperature, three cycles of freezing–thawing, and a 7-day duration at −80 °C.
The retention times of the analyte peaks were consistent with those in the spiked samples. […] The LLOQs for chrysin, chrysin-7-O-β-D-glucuronide, hispidulin, wogonoside, quercetin, quercetin-7-O-β-D-glucoside, baicalin, baicalein, acacetin, oroxin A, oroxin B, oroxylin A, oroxylin A-7-O-β-D-glucuronide, apigenin, and scutellarein were 1.0, 2.0, 1.0, 0.3, 1.0, 0.1, 9.0, 6.0, 0.3, 6.0, 4.0, 1.0, 2.0, 0.5, and 0.3 ng/mL, respectively. In Supplementary Table S2, the RE for accuracy is between −13.77% and 12.55%, and the RSD for precision is below 14.55% (both intra- and inter-day). […] The matrix effect varied from 60.15% to 115.53%, with RSD values below 10.54%. In Supplementary Table S4, the RSD values for stability of the analytes are found to be lower than 13.98%, meaning that these components were stable under the following conditions: encompassing a 12-h period in an autosampler, a 4-h interval at room temperature, three cycles of freezing and thawing, and a 7-day duration at −80 °C.

[3] = rat plasma after oral OS extract
[4] = spiked concentration 2000 ng/mL
[5] = spiked concentration 32000 ng/mL

Structure (SMILES) | concentration at 0.5 h ([1]; male) [ng/mL] | Measured, -80°C for 7 days ([2]; spiked concentration 2 ng/mL) [ng/mL] | Measured, Autosampler for 12 h ([2]; spiked concentration 2 ng/mL) [ng/mL] | Measured, Room temperature for 4 h ([2]; spiked concentration 2 ng/mL) [ng/mL] | Measured, Three freeze-thaw cycles ([2]; spiked concentration 2 ng/mL) [ng/mL] | Measured, -80°C for 7 days ([2]; spiked concentration 20 ng/mL) [ng/mL] | Measured, Autosampler for 12 h ([2]; spiked concentration 20 ng/mL) [ng/mL] | Measured, Room temperature for 4 h ([2]; spiked concentration 20 ng/mL) [ng/mL] | Measured, Three freeze-thaw cycles ([2]; spiked concentration 20 ng/mL) [ng/mL] | Measured, -80°C for 7 days ([2]; spiked concentration 320 ng/mL) [ng/mL] | Measured, Autosampler for 12 h ([2]; spiked concentration 320 ng/mL) [ng/mL] | Measured, Room temperature for 4 h ([2]; spiked concentration 320 ng/mL) [ng/mL] | Measured, Three freeze-thaw cycles ([2]; spiked concentration 320 ng/mL) [ng/mL] | AUC(0-t) ([1]; male, read-out: AUC(0-t)) [µg·h/mL] | AUC(0-inf) ([1]; male) [µg·h/mL] | Cmax ([1]; male) [ng/mL] | half-life ([1]; male) [h] | Tmax ([1]; male) [h] | also measured
COc1ccc(-c2cc(=O)c3c(O)cc(O)cc3o2)cc1 [Acacetin, acacetin] | 8 | 1.78 ± 0.11 | 1.78 ± 0.15 | 2.20 ± 0.04 | 1.81 ± 0.06 | 17.78 ± 0.87 | 22.01 ± 1.07 | 21.25 ± 1.13 | 17.60 ± 1.24 | 284.83 ± 15.85 | 317.16 ± 38.69 | 313.68 ± 7.94 | 282.90 ± 15.75 | – | – | – | – | – | Plasma levels [1, 3]: too weak to obtain comprehensive pharmacokinetic curves
O=C(O)[C@H]1O[C@@H](Oc2cc3oc(-c4ccccc4)cc(=O)c3c(O)c2O)[C@H](O)[C@@H](O)[C@@H]1O [Baicalin, baicalin] | 10400 | – | – | – | – | – | – | – | – | – | – | – | – | 257 | 264 | 13400 | 9.14 ± 1.15 | 0.67 ± 0.13 | Shape of plasma concentration-time curve [1, 3]: significant bimodal phenomena; also recorded: clear bimodal phenomena; AUC(0-t) [1]: significantly higher than that of the others; Measured, -80°C for 7 days ([2]; spiked concentration 200 ng/mL): 196.55 ± 6.22 ng/mL; Measured, Autosampler for 12 h ([2]; spiked concentration 200 ng/mL): 197.37 ± 12.83 ng/mL; Measured, Room temperature for 4 h ([2]; spiked concentration 200 ng/mL): 197.18 ± 11.27 ng/mL; Measured, Three freeze-thaw cycles ([2]; spiked concentration 200 ng/mL): 191.59 ± 7.20 ng/mL; Measured, -80°C for 7 days [2, 4]: 2100.51 ± 51.69 ng/mL; Measured, Autosampler for 12 h [2, 4]: 1919.30 ± 46.13 ng/mL; Measured, Room temperature for 4 h [2, 4]: 2105.21 ± 73.11 ng/mL; Measured, Three freeze-thaw cycles [2, 4]: 1965.30 ± 64.97 ng/mL; Measured, -80°C for 7 days [2, 5]: 34521.83 ± 3366.83 ng/mL; Measured, Autosampler for 12 h [2, 5]: 31375.83 ± 425.60 ng/mL; Measured, Room temperature for 4 h [2, 5]: 30814.68 ± 1603.40 ng/mL; Measured, Three freeze-thaw cycles [2, 5]: 32953.20 ± 2649.23 ng/mL
O=c1cc(-c2ccc(O)cc2)oc2cc(O)c(O)c(O)c12 [Scutellarein, scutellarein] | 14 | 1.77 ± 0.12 | 2.05 ± 0.22 | 1.84 ± 0.17 | 1.78 ± 0.13 | 19.80 ± 0.92 | 19.68 ± 1.68 | 18.12 ± 0.51 | 21.33 ± 0.83 | 296.10 ± 18.07 | 327.40 ± 16.47 | 316.24 ± 35.36 | 292.73 ± 17.80 | 0.0894 ± 0.0185 | 0.0956 ± 0.0175 | 47.8 ± 15.1 | 4.07 ± 1.61 | 0.1 ± 0.04 | –
